Among the test systems are Salmonella typhimurium; Escherichia coli; Candida glabrata 090902; Vibrio alginolyticus; Vibrio parahaemolyticus; Vibrio anguillarum; Staphylococcus aureus; Vibrio fluvialis.
What all share (assay): ≥ marks a high value that may be exact or a test limit, other limits are often not marked, values filed in µg/mL are converted to µM
The subject of test [1] is Staphylococcus aureus A170.
The test system of test [2] is Staphylococcus epidermidis.
Test [3] concerns Psychrobacter faecalis X29.
The test system of test [4] is Candida albicans ATCC 10231.
In test [5] the test system is Escherichia coli ATCC 25922.
In test [6] the test system is Enterococcus faecium 091299.
Test [7] has as its system Enterobacter cloacae CGMCC 1.57.
Test [8] concerns Enterococcus faecalis 981.
For test [9], the system named is Nocardia asteroides 201118.
Test [10] deals with Staphylococcus aureus ATCC 25923.
The subject of test [11] is Klebsiella pneumoniae 08040724.
For test [12], the system named is Pseudomonas aeruginosa PAO1.
In test [13] the test system is Klebsiella pneumoniae ATCC 700603.
Test [14] has as its system Pseudomonas aeruginosa ATCC 27853.
The subject of test [15] is Salmonella enterica subsp. enterica serovar Typhimurium ATCC 14028.
Test [16] relates to Pseudomonas aeruginosa PA006.
Test [17] relates to Staphylococcus aureus ATCC 29313.
The test system of test [18] is Pseudomonas aeruginosa Pa4-SA2.
In test [19] the test system is Pseudomonas aeruginosa Pa1-SA2.

Each structure is given as a SMILES string. ≈ marks a conversion by molar mass, not a printed value.

As a reminder, the MIC is the least concentration at which growth counts as inhibited. High values mean a less susceptible organism, low ones a more susceptible organism.

In the case of `CC[C@H](C)[C@H](NC(=O)[C@@H]1CCCN1C(=O)[C@H](CC(C)C)NC(=O)[C@@H](N)CC(C)C)C(=O)N[C@H](C(=O)NCC(=O)N[C@@H](CC(N)=O)C(=O)N[C@@H](CC(C)C)C(=O)N[C@@H](CC(C)C)C(=O)N[C@@H](CCCCN)C(=O)N[C@@H](CO)C(=O)N[C@@H](CC(C)C)C(=O)N[C@@H](CC(C)C)C(=O)O)C(C)C` [LLPIVGNLLKSLL], the MIC against Salmonella typhimurium is at least 71.8 µM; against Escherichia coli, above 71.8 µM; in test [1] it was 17.9 µM (≈ 25 µg/mL); in test [2], 21.5 µM (≈ 30 µg/mL).

Consider `CC[C@H](C)[C@H](NC(=O)CNC(=O)[C@@H](NC(=O)[C@H](C)NC(=O)[C@H](C)NC(=O)[C@H](CCCCN)NC(=O)[C@@H](NC(=O)[C@H](CC(C)C)NC(=O)CNC(=O)[C@@H]1CCCN1C(=O)[C@H](CC(C)C)NC(=O)[C@@H](N)Cc1ccccc1)[C@@H](C)CC)C(C)C)C(=O)NCC(=O)N[C@@H](CO)C(=O)N[C@H](C(=O)N[C@H](C(=O)N[C@@H](Cc1ccccc1)C(=O)N[C@H]1CSSC[C@@H](C(=O)O)NC(=O)[C@H](CCCCN)NC(=O)[C@H](CCCCN)NC(=O)[C@H](CO)NC(=O)[C@H]([C@@H](C)CC)NC(=O)[C@H](CCCCN)NC1=O)[C@@H](C)CC)[C@@H](C)O` [FLPGLIKAAVGIGSTIFCKISKKC], for which the MIC was 25 µM (≈ 62.3 µg/mL) in test [3]; 50 µM (≈ 125 µg/mL) in test [4]; 100 µM (≈ 249 µg/mL) in test [5]; 6.3 µM (≈ 15.7 µg/mL) with Candida glabrata 090902; at least 100 µM in test [6]; at least 100 µM in test [7]. Further, the MIC in test [8] is 3.1 µM (≈ 7.73 µg/mL); in [9], 3.1 µM (≈ 7.73 µg/mL); in test [10] it was 6.3 µM (≈ 15.7 µg/mL); in test [11], at least 100 µM.

`CSCC[C@H](NC(=O)[C@H](CO)NC(=O)[C@H](CC(C)C)NC(=O)[C@H](Cc1cnc[nH]1)NC(=O)[C@H](CO)NC(=O)[C@@H](N)CCC(N)=O)C(=O)N[C@H]1CSSC[C@@H](C(=O)N[C@@H](CCCCN)C(=O)N[C@@H](Cc2ccccc2)C(=O)O)NC(=O)[C@@H]2CSSC[C@@H]3NC(=O)[C@@H]4CSSC[C@H](NC(=O)[C@H](Cc5ccc(O)cc5)NC(=O)[C@H](CCCN=C(N)N)NC1=O)C(=O)N[C@@H](CSSC[C@H](NC(=O)CNC(=O)[C@H](CCCCN)NC(=O)[C@H](CC(N)=O)NC(=O)[C@H](CC(N)=O)NC(=O)[C@H](CCCN=C(N)N)NC3=O)C(=O)NCC(=O)N[C@@H](Cc1ccccc1)C(=O)N2)C(=O)N[C@@H](CC(N)=O)C(=O)N4` [QSHLSMCRYCCNCCRNNKGCGFCCKF]: the MIC is at least 50 µM in the test on Vibrio alginolyticus; at least 50 µM in the test with Vibrio parahaemolyticus; 50 µM (≈ 150 µg/mL) in the test with Escherichia coli; at least 50 µM in the test on Vibrio anguillarum; 50 µM (≈ 150 µg/mL) in the test with Staphylococcus aureus; 25 µM (≈ 75 µg/mL) against Vibrio fluvialis.

`CC[C@H](C)[C@H](NC(=O)[C@H](CCCCN)NC(=O)CNC(=O)[C@H](CCSC)NC(=O)[C@H](C)NC(=O)[C@H](Cc1cnc[nH]1)NC(=O)[C@H](C)NC(=O)[C@@H](NC(=O)[C@H](CC(C)C)NC(=O)[C@H](CCC(N)=O)NC(=O)[C@H](CCCN=C(N)N)NC(=O)CNC(=O)[C@H](C)NC(=O)[C@H](CC(=O)O)NC(=O)[C@H](CCCCN)NC(=O)[C@@H](NC(=O)[C@@H](NC(=O)[C@H](CC(=O)O)NC(=O)[C@H](Cc1ccccc1)NC(=O)[C@@H](NC(=O)CN)C(C)C)[C@@H](C)CC)[C@@H](C)CC)C(C)C)C(=O)N[C@@H](C)C(=O)N[C@@H](CCC(=O)O)C(=O)N[C@@H](CCCCN)C(=O)N[C@H](C(N)=O)C(C)C` [GVFDIIKDAGRQLVAHAMGKIAEKV]: the MIC in [12] is 192 µM (≈ 512 µg/mL); in test [5] it was 300 µM (≈ 800 µg/mL); in test [13], above 300 µM; in [14], above 192 µM; in test [15] it was above 300 µM; in test [16] it was 12 µM (≈ 32 µg/mL). Moreover, the MIC in [17] is at least 300 µM; in test [18] it was at least 48 µM; in [19] it was at least 96 µM.
